PubChem BioAssay (NCI)
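In this assay, cells in 96-well plates receive the compound at five concentrations for 48 hours. Endpoints are linearly interpolated between the surrounding concentrations. At the TGI there is no net growth.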

What was measured:
Assay in all cases: NCI anticancer screen, dose series, 48 h
DMS 273 small cell lung = test system: DMS 273 small cell lung
SF-295 CNS = test system: SF-295 CNS
OVCAR-3 ovarian = test system: OVCAR-3 ovarian
KM12 colon = test system: KM12 colon
OVCAR-5 ovarian = test system: OVCAR-5 ovarian
DMS 114 small cell lung = test system: DMS 114 small cell lung

Structure (SMILES) | TGI (DMS 273 small cell lung) [µM] | TGI (SF-295 CNS) [µM] | TGI (OVCAR-3 ovarian) [µM] | TGI (KM12 colon) [µM] | TGI (OVCAR-5 ovarian) [µM] | TGI (DMS 114 small cell lung) [µM]
Cc1nc(-n2nc(-c3ccccc3)cc2-c2ccccc2)sc1C(=O)/C=C/c1ccc(/C=C/C(=O)c2sc(-n3nc(-c4ccccc4)cc3-c3ccccc3)nc2C)cc1 | 44.9 | 51.8 | 59.3 | 35.8 | 57.5 | > 100
COc1ccc(NC(=O)C(=O)c2c(O)c3ccc(O)cc3oc2=O)c([N+](=O)[O-])c1 | > 100 | > 100 | > 100 | > 100 | > 100 | > 100
Cc1c(Cl)cccc1NC(=O)C(=O)C(C(=O)c1ccccc1-c1ccccc1)C1OC(=O)c2ccccc21 (stereo not drawn) | 77 | 45 | 33.8 | 39.4 | 46.9 | 43.5
O=C1NC(Cc2ccc(O)cc2)C(=O)N2CCCC12 (stereo not drawn) | > 100 | > 100 | > 100 | > 100 | > 100 | > 100
COC(=O)C1CCc2c1c(=O)n1c([nH]c3ccccc31)c2C#N (stereo not drawn) | > 100 | > 100 | > 100 | > 100 | > 100 | > 100
CN1c2ccccc2N(C(=O)c2ccc([N+](=O)[O-])cc2)C(CC(=O)O)c2cccn21 (stereo not drawn) | > 100 | > 100 | > 100 | > 100 | > 100 | > 100
Cc1ccc(S(=O)(=O)OCCn2cnc3nc(NC(=O)c4ccccc4)[nH]c(=O)c32)cc1 | > 100 | > 100 | > 100 | > 100 | > 100 | > 100
CCCCCN(CCCCC)C(=O)[C@@H](CCC(=O)O)NC(=O)c1cc2ccccc2[nH]1 | > 100 | > 100 | > 100 | > 100 | > 100 | > 100
